Here are results for three compounds from patent publication US20220031636A1, “COMPOUNDS THAT ENHANCE THE ACTION OF METFORMIN” (SOCIETE DES PRODUiTS NESTLE S.A., priority 2018, published 2022).

Experiment [1] has as its target T1, bacterially-expressed AMPKα2β1γ1 (Homo sapiens, UniProt P54619+P54646+Q9Y478).
T1 construct: His; made in house
Description: HTRF-KinEASE kinase assay of phosphorylated AMPK heterotrimer with AMP and fixed concentrations of Lusianthridin. Format: biochemical. The procedure:
The AMPK heterotrimers were expressed in bacteria and purified through the His-α subunit by nickel purification, further purified through gel filtration and finally phosphorylated by incubation with CaMKKβ. This phosphorylated AMPK was incubated with varying concentrations of AMP for 30 mins using substrate and reagents from the HTRF-KinEASE Cisbio assay kit (STK S1 Kit). Phosphorylation of the substrate was measured by incubating with donor and acceptor antibodies for 2 h at room temperature as per the manufacturer's protocol (and Coulerie et al., (2016), see below) and phosphorylated peptide detected by performing HTRF.
On the technique in general: Time-resolved FRET reads energy transfer from a long-lived donor to a nearby acceptor.

In a further experiment the test system is primary hepatocytes. Description: Lipogenesis in primary hepatocytes ([1-14C]-acetate incorporation into fatty acids). The experiment is classed as cell-based. Particulars: low/non-saturating concentration, 1 h at 37 C. How it is done:
Hepatocyte isolation: The liver was first perfused with 50 ml perfusion buffer (Krebs-Hepes buffer with […] EDTA), followed with 50 ml collagenase A buffer (Krebs-Hepes buffer with 5 mM CaCl2) and 0.5 mg/ml collagenase). After passage through a 100 μm mesh, the cell solution was washed several times with cold media and finally the cell culture pellet was resuspended in culture medium (medium 199 (M199)+GlutaMAX, 100 U/ml penicillin G, and 100 μg/ml streptomycin, 0.1% (wt/vol) BSA, 10% FCS, 10 nM insulin, 200 nM triiodothyronine and 500 nM dexamethasone). Hepatocytes were left to attach (3-4 h) and cultured overnight in M199 supplemented with antibiotics and 100 nM dexamethasone. Cells were used for experiments the following morning.
For lipogenesis measurements in primary hepatocytes, cells were seeded at 600 K cells per well in a 6-well plate overnight. Media was replaced with fresh M199 media alone for 2 hours prior to incubation with varying concentrations of Lusianthridin or compound 1 for 1 h at 37 C, in the presence of [1-^14C]-acetate. The incorporation of [^14C] into fatty acids was determined in the lower organic layer after separation from the aqueous phase.
Lipogenesis is controlled by the AMPK substrate ACC, and phosphorylation and inhibition of ACC by AMPK, leads to a decrease in lipogenesis. Lipogenesis was measured in primary hepatocytes by determining the incorporation of ^14C-labelled acetate into fatty acids.
Lipogenesis was monitored in the presence or absence of a low/non-saturating concentration of Lusianthridin or metformin for 1 h at 37 C. Furthermore, cells were incubated in the presence of both of these compounds.

Entries after “also recorded” stand apart in the source; their conditions may differ.

T1 sequence (P54646 whole entry): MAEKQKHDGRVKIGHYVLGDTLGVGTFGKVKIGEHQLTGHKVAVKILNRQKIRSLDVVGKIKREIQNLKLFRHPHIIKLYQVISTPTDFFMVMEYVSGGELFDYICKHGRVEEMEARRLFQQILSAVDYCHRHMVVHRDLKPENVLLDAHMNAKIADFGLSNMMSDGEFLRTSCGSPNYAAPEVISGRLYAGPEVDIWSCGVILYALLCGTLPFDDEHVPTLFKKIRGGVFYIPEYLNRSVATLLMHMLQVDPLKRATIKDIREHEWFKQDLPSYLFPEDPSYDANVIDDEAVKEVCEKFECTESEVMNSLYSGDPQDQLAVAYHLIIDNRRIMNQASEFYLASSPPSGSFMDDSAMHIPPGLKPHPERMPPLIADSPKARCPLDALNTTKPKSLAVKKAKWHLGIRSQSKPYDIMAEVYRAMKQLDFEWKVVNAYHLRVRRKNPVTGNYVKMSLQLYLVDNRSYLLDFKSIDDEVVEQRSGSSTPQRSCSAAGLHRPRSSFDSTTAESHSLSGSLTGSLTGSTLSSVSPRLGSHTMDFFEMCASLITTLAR
T1 sequence (Q9Y478 whole entry): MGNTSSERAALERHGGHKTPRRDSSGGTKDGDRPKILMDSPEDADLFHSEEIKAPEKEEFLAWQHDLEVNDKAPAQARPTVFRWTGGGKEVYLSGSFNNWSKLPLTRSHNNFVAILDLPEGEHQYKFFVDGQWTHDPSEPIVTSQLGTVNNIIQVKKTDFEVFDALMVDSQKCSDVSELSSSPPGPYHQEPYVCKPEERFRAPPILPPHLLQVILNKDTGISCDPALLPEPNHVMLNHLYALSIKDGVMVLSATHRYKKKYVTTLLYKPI
T1 sequence (P54619 whole entry): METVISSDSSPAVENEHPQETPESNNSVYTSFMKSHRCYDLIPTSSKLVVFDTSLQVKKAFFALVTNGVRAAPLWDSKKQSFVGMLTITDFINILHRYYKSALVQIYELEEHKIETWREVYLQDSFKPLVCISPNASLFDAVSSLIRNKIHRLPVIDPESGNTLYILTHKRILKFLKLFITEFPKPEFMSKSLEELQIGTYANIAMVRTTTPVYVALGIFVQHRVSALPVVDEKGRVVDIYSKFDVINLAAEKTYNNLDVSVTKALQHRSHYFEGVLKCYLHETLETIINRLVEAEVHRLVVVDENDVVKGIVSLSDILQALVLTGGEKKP

With `Nc1ncnc2c1ncn2[C@@H]1O[C@H](COP(=O)(O)O)[C@@H](O)[C@H]1O` [AMP, reference compound], the “AMPK activity (HTRF 665 nm/620 nm ratio)” value in experiment [1] (AMP alone, varying concentrations, 30 mins) is listed as “dose-dependent increase in AMPK activity”.
Consider `COc1cc(O)c2c(c1)CCc1cc(O)ccc1-2` [Lusianthridin, 7-Methoxy-9,10-dihydrophenanthrene-2,5-diol], for which, in experiment [1] (fixed concentrations of Lusianthridin plus varying AMP), the “activation of AMPK in combination with AMP” value is reported as “additive activation of AMPK; also recorded: Additive Effect on AMP Activation”. Further, in the experiment with primary hepatocytes, the “inhibition of lipogenesis, compound alone (% lipogenesis compared to control untreated cells)” value is “inhibition of lipogenesis; also recorded: able to inhibit lipogenesis”.
Regarding `CN(C)C(=N)N=C(N)N` [Metformin], the “inhibition of lipogenesis, compound alone (% lipogenesis compared to control untreated cells)” value in the experiment with primary hepatocytes is given as “inhibition of lipogenesis”; in the experiment with primary hepatocytes (listed as metformin), “able to inhibit lipogenesis”.
